Molecular target: T1, PMN LTB4 receptor (Homo sapiens, UniProt Q15722)
T1 construct: endogenous in cells; host or cells: neutrophils (PMN) isolated from heparinized blood by ficoll gradient and dextran sedimentation
Assay: LTB4 Human Neutrophil (PMN) Binding Assay
Conditions: read-out: Ki, affinity for LTB4 (receptor)
Source text: LTB4 Human Neutrophil (PMN) Binding Assay
LTB4 for the PMN LTB4 receptor.

T1 sequence (Q15722 whole entry): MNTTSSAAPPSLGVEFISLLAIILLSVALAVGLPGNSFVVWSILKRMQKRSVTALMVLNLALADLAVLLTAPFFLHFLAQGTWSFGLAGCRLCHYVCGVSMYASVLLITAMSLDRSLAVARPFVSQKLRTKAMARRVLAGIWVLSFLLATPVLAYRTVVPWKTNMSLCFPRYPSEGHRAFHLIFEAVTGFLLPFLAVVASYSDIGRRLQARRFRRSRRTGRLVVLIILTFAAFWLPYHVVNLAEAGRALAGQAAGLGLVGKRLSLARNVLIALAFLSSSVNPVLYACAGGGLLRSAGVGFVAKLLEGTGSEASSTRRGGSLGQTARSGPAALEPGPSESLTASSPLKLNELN

## O=C(CCCCCOc1cc(-c2ccc3c(c2)OCO3)cc(-c2ccccc2)n1)NC(Cc1ccc(O)cc1)C(=O)O (stereo not drawn) [Compound III]
  Ki: 41 nM

## CCc1cc(-c2ccc(F)cc2)c(O)cc1OCCCCC(C)(C)CNC(=O)c1ccc(N/N=C/c2ccccc2)nc1 [IIa]
  Ki: 8 nM

## O=C(CCCCCOc1cc(-c2ccc3c(c2)OCO3)cc(-c2ccccc2)n1)NC(Cc1ccc(OCCCNC(=O)c2ccc(N/N=C/c3ccccc3S(=O)(=O)O)nc2)cc1)C(=O)O (stereo not drawn) [Reagent IV]
  Ki: 52 nM

Reference: US6416733B1, “Radiopharmaceuticals for imaging infection and inflammation” (Bristol-Myers Squibb Pharma Company, priority 1996, dated 2002)
